What all share (assay type): in vivo, mice
The test system of one test is Influenza viruses. Put plainly: Mouse-Survival Test (Test No. 1), Influenza virus strain not given. The note with it: unidentified influenza virus, 360 h; for response vs control in vivo at 500 mg/kg / response vs control in vivo at 50 mg/kg / response vs control in vivo at 5 mg/kg: read-out: Survival Index (S.I.); for responders at 500 mg/kg / responders at 50 mg/kg / responders at 5 mg/kg: read-out: Survival Percent.

Test [1] concerns Influenza virus Jap 305. Nature of the test: Mouse-Survival Test (Test No. 1), Influenza Jap 305. The conditions noted are these: for S.I.: significant if >1.24.
In test [2] the test system is Influenza virus Jap 305. The note with it: 1 dose, 30 minutes before infection, 15 multiples of LD50.
The mark [3] stands for this setting: Jap 305, 50 mg/kg PO, virus dose 15 multiples of LD50.
Setting [4] is: Jap 305, 500 mg/kg IP, virus dose 22 multiples of LD50.
Where [5] appears, read: Jap 305, 500 mg/kg PO, virus dose 15 multiples of LD50.

The source of these data is patent US4000281A, “Pyrazole derivatives” (priority 1971, dated 1976).

Each structure is given as a SMILES string. Like-named read-outs stand apart in the source and are kept apart here.

For the compound `COc1ccc(O)c(-c2c(-c3ccncc3)n[nH]c2C)c1` [Compound F, 3-(4-pyridyl)-4-(2-hydroxy-5-methoxy-phenyl)-5-methylpyrazole], in the test on Influenza viruses (ip), the response vs control in vivo at 500 mg/kg stood at 129% and the responders at 500 mg/kg was 0%.
With `CCc1nn(C)c(-c2ccncc2)c1-c1ccccc1O` [Compound G, 2-methyl-3-(4-pyridyl)-4-(2-hydroxyphenyl)-5-ethyl-pyrazole], in the test on Influenza viruses (ip), the response vs control in vivo at 50 mg/kg was determined as 130%, the response vs control in vivo at 500 mg/kg is 217%, the responders at 50 mg/kg was 0% and the responders at 500 mg/kg stood at 60%.
Take `CCCc1[nH]nc(-c2ccncc2)c1-c1ccccc1O` [Compound C, 3-(4-pyridyl)-4-(2-hydroxyphenyl)-5-n-propyl-pyrazole]: in the test on Influenza viruses (ip), the response vs control in vivo at 500 mg/kg stood at 184% and the responders at 500 mg/kg worked out at 50%.
Take `Cc1[nH]nc(-c2ccncc2)c1-c1ccccc1O` [Compound B, 3-(4-pyridyl)-4-(2-hydroxyphenyl)-5-methylpyrazole]: in the test on Influenza viruses (ip), the response vs control in vivo at 500 mg/kg is 129% and the responders at 500 mg/kg is 0%.
Turning to `CCCCc1[nH]nc(-c2ccncc2)c1-c1ccccc1O` [Compound E, 3-(4-pyridyl)-4-(2-hydroxyphenyl)-5-n-butylpyrazole], in the test with Influenza viruses (ip), the response vs control in vivo at 50 mg/kg is 130%, the response vs control in vivo at 500 mg/kg is 162%, the responders at 50 mg/kg amounted to 10% and the responders at 500 mg/kg came out at 10%.
On to `CC(C)c1[nH]nc(-c2ccncc2)c1-c1ccccc1O` [Compound D, 3-(4-pyridyl)-4-(2-hydroxyphenyl)-5-isopropylpyrazole], for which, in the test with Influenza virus Jap 305 [1] (setting [3]), the “Survival Percent” value was 30% and the S.I. stood at 1.31. Besides, in the test on Influenza virus Jap 305 [1] (setting [4]), the “Survival Percent” value was 70% and the S.I. was 2.16. In the test with Influenza virus Jap 305 [1] (setting [5]), the “Survival Percent” value came to 100% and the S.I. worked out at 2.12. In addition, in the test on Influenza virus Jap 305 [2] (intranasal 2.5% suspension), the “MDD (Mean Day of Death)” value worked out at 10.50 days, the S.I. is listed as 1.49 and the “Survival Percent” value is reported as 40%. Also, in the test with Influenza virus Jap 305 [2] (intranasal 5% suspension), the “MDD (Mean Day of Death)” value was 9.76 days, the S.I. is on record as 1.38 and the “Survival Percent” value turned out to be 30%. Besides, in the test with Influenza virus Jap 305 [2] (intranasal 10% suspension), the “MDD (Mean Day of Death)” value came out at 13.00 days, the S.I. amounted to 1.84 and the “Survival Percent” value amounted to 60%. In addition, in the test on Influenza viruses (ip), the response vs control in vivo at 5 mg/kg was 136%, the response vs control in vivo at 50 mg/kg came to 131%, the response vs control in vivo at 500 mg/kg stood at 269% and the responders at 5 mg/kg turned out to be 0%. Further, in the test on Influenza viruses (ip), the responders at 50 mg/kg is 0% and the responders at 500 mg/kg was found to be 100%. For the same compound, in the test on Influenza viruses (po), the response vs control in vivo at 50 mg/kg turned out to be 167%, the response vs control in vivo at 500 mg/kg was determined as 214%, the responders at 50 mg/kg is 40% and the responders at 500 mg/kg was determined as 60%.
On to `CCc1nn(C(C)C)c(-c2ccncc2)c1-c1ccccc1O` [Compound H, 2-isopropyl-3-(4-pyridyl)-4-(2-hydroxyphenyl)-5-ethylpyrazole], for which, in the test on Influenza viruses (ip), the response vs control in vivo at 50 mg/kg is 135%, the response vs control in vivo at 500 mg/kg was found to be 191%, the responders at 50 mg/kg came to 0% and the responders at 500 mg/kg amounted to 30%.
For `CCCCn1nc(CC)c(-c2ccccc2O)c1-c1ccncc1` [Compound I, 2-n-butyl-3-(4-pyridyl)-4-(2-hydroxyphenyl)-5-ethylpyrazole], in the test on Influenza viruses (ip), the response vs control in vivo at 5 mg/kg was determined as 132%, the response vs control in vivo at 50 mg/kg was 148%, the response vs control in vivo at 500 mg/kg worked out at 191% and the responders at 5 mg/kg was 0%. Further, in the test with Influenza viruses (ip), the responders at 50 mg/kg is 0% and the responders at 500 mg/kg was 14%.
